Assay results from patent US8658639B2, “N-substituted-cyclic amino derivative” (Dainippon Sumitomo Pharma Co., Ltd, priority 2009, dated 2014).

What was measured:
[1] = tested on: abdominal skin of CD male rats; assay: Testing for irritation by single subcutaneous administration to rats; format: in vivo; set-up: key: — No inflammation; Amount of Inflammation: * < ** < *** < ****; Amount of Inflammation: * < ** < *** < ****; Amount of Inflammation: * < ** < *** < ****; Amount of Inflammation: * < ** < *** < ****; details: single subcutaneous administration 0.1 ml, 2% in DMSO and saline
Protocol: Experiment 2: Testing for Irritation by Single Subcutaneous Administration to Rats
A test compound was measured and dissolved in DMSO and a saline solution in a concentration of 2%.

[2] = biological target: T1, Recombinant human renin (Homo sapiens, UniProt P00797); assay: In vitro renin inhibitory activity assay; format: biochemical; details: recombinant human renin 4.2 ng/mL, substrate 4 μM, 37° C., one hour, pH 7.4
T1 sequence (P00797 67-406): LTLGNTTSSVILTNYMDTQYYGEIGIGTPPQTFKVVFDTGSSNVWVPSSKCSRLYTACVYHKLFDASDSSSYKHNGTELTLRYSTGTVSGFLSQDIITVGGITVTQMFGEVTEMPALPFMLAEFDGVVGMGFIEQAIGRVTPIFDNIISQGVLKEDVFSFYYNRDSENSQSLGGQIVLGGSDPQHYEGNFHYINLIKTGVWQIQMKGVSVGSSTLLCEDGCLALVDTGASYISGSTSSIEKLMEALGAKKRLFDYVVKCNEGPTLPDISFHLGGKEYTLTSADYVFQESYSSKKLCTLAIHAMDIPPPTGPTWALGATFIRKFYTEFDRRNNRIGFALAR
Protocol: Experiment 1: In Vitro Renin Inhibitory Activity Assay
Recombinant human renin (4.2 ng/mL) was reacted in 0.1M HEPES buffer (pH 7.4) containing 0.1M NaCl, 1 mM EDTA and 0.1 mg/mL BSA together with a substrate and a test compound at 37° C. for one hour. As the substrate, Arg-Glu(EDANS)-Ile-His-Pro-Phe-His-Leu-Val-Ile-His-Thr-Lys(DABCYL)-Arg (SEQ ID NO: 1) or DABCYL-γ-Abu-Ile-His-Pro-Phe-His-Leu-Val-Ile-His-Thr-EDANS (SEQ ID NO: 2) was added in such an amount so that the final concentration thereof became 4 μM. The elevated fluorescence intensity at the exciting wavelength 340 nm and the fluorescence wavelength 500 nm was measured by a fluorescence plate reader. The concentration of a test compound to be needed to inhibit an enzyme activity in the presence of a test compound in several concentrations by 50% was calculated as an IC50 value. The test compounds were diluted in DMSO and used in this Experiment.

Compound: CCC(=O)NCCN1C(=O)C2(CCC2)Oc2cc(C)c(C(=O)N(C(C)C)C3CCCN(C(=O)OC(C)OC(=O)c4ccc(C)cc4)C3)cc21 (stereo not drawn) [Example 79, 1-{[(4-Methylphenyl)carbonyl]oxy}ethyl 3-[({7-methyl-3-oxo-4-[2-(propanoylamino)ethyl]-3,4-dihydrospiro[1,4-benzoxazine-2,1′-cyclobutan]-6-yl}carbonyl)(2-propanyl)amino]-1-piperidinecarboxylate]
- Observation at Administration Site, One day after administration [1]: ***
- Observation at Administration Site, Three days after administration [1]: ***
- IC50 [2]: 5.3 nM

Compound: CCC(=O)NCCN1C(=O)C2(CCC2)Oc2cc(C)c(C(=O)N(C(C)C)[C@@H]3CCCN(C(=O)OCc4oc(=O)oc4C)C3)cc21 [Example 81]
- Observation at Administration Site, One day after administration [1]: **
- Observation at Administration Site, Three days after administration [1]: —
- IC50 [2]: 1.7 nM

Compound: CCC(=O)NCCN1C(=O)C2(CCC2)Oc2cc(C)c(C(=O)N(C(C)C)[C@@H]3CCCN(C(=O)O[C@H](C)OC(=O)C(C)C)C3)cc21 [Example 82]
- Observation at Administration Site, One day after administration [1]: **
- Observation at Administration Site, Three days after administration [1]: —
- IC50 [2]: 530 nM

Compound: CCC(=O)NCCN1C(=O)[C@](C)(COC)Oc2cc(C)c(C(=O)N(C(C)C)[C@@H]3CCCN(C(=O)O[C@H](C)OC(=O)C(C)C)C3)cc21 [Example 93]
- Observation at Administration Site, One day after administration [1]: —
- Observation at Administration Site, Three days after administration [1]: —
- IC50 [2]: 1900 nM
